Laboratory results: ChEMBL document CHEMBL1201862, “PubChem BioAssay data set” (2004)
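In this assay, cells in 96-well plates receive the compound at five concentrations for 48 hours. Endpoints are linearly interpolated between the surrounding concentrations. GI50 = concentration required for 50% inhibition of growth.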 Calls of active or inactive are those of the source. Rule as the data show it: active = GI50 up to about 1.1 µM and inactive = higher.

Legend:
Assay in all cases: growth of human tumour cells (NCI), 48 h
[1] = system: COLO 205
[2] = system: U-251
[3] = system: SK-MEL-2
[4] = system: KM12
[5] = system: SK-OV-3
[6] = system: SNB-19
[7] = system: HCC 2998
[8] = system: NCI-H226
[9] = system: OVCAR-3
[10] = system: A549
[11] = system: HOP-62
[12] = system: M14
[13] = system: IGROV-1
[14] = system: LOX IMVI
[15] = system: CAKI-1
[16] = system: SK-MEL-28
[17] = system: HOP-92

Measured: GI50

O=[N+]([O-])c1ccc2c(c1)OCCOCCOc1ccc([N+](=O)[O-])cc1OCCOCCO2
inactive: [1] > 100 µM | [2] > 100 µM | [3] > 100 µM | [4] > 100 µM | [5] > 100 µM | [6] > 100 µM | [7] > 100 µM | [8] > 100 µM | [9] > 100 µM | [10] > 100 µM | [11] > 100 µM | [12] > 100 µM | [13] > 100 µM | [14] > 100 µM | [15] > 100 µM | [16] > 100 µM

COP1(=O)CC2C(Cl)(Cl)C2(C)C1 (configuration not stated)
inactive: [1] > 100 µM | [2] > 100 µM | [4] > 100 µM | [5] > 100 µM | [6] > 100 µM | [7] > 100 µM | [8] > 100 µM | [9] > 100 µM | [10] > 100 µM | [11] > 100 µM | [12] > 100 µM | [13] > 100 µM | [14] > 100 µM | [16] > 100 µM

O=C(NCCCCCCNC(=O)c1cccc2ccccc12)c1cccc2ccccc12
inactive: [1] 1.85 µM | [2] 18.3 µM | [3] 12.2 µM | [4] > 100 µM | [5] 21.2 µM | [17] 7.96 µM | [8] 17.8 µM | [9] 28.9 µM | [10] 35.4 µM | [11] 20.5 µM | [12] 46.8 µM | [13] 32.9 µM | [14] 14.2 µM | [15] 21.3 µM | [16] > 100 µM

NC(Cc1ccccc1)C(=O)OCN1C(=O)C2C3C=CC(C2C1=O)C1C2C(=O)N(COC(=O)C(N)Cc4ccccc4)C(=O)C2C31 (configuration not stated)
inactive: [1] 17.9 µM | [2] 17.3 µM | [4] 20.7 µM | [5] 27.9 µM | [6] 43.1 µM | [17] 41.8 µM | [8] 27.7 µM | [9] 28.4 µM | [10] 23.2 µM | [12] 19.5 µM | [13] 23.9 µM | [14] 18.7 µM | [16] 18.6 µM

O/N=C1/CCCC/C1=C\c1ccc(Cl)c(Cl)c1
inactive: [1] 19.7 µM | [2] 17.3 µM | [5] 35.3 µM | [6] 27.9 µM | [7] 29 µM | [9] 21.8 µM | [10] 30.1 µM | [11] 49 µM | [12] 28.2 µM | [13] 38 µM | [14] 21 µM | [15] 32.5 µM | [16] 34.2 µM

CCCO/S(=N\S(=O)(=O)c1ccccc1)c1ccccc1[N+](=O)[O-] (configuration not stated)
inactive: [1] > 100 µM | [2] > 100 µM | [3] > 100 µM | [4] > 100 µM | [5] > 100 µM | [6] > 100 µM | [7] > 100 µM | [8] > 100 µM | [9] > 100 µM | [10] > 100 µM | [11] > 100 µM | [12] > 100 µM | [13] > 100 µM | [14] > 100 µM | [15] > 100 µM | [16] 63.8 µM

Cc1c(C(Cc2ccccc2N(C)C(=O)/C=C\C(=O)O)c2c[nH]c3ccccc23)c2ccccc2n1C (configuration not stated)
inactive: [1] 14.5 µM | [2] 16.4 µM | [3] > 10 µM | [4] 15.6 µM | [5] 21.7 µM | [6] 18 µM | [7] 16.3 µM | [8] 19.3 µM | [9] 12.3 µM | [10] 16.6 µM | [11] 16.2 µM | [12] 15.4 µM | [13] 18.2 µM | [14] 15.3 µM | [15] 19.3 µM
